Source: ChEMBL document CHEMBL1122453, “Structure-activity relationships in the antiinflammatory steroids: a pattern-recognition approach” (1983)
Calls of active or inactive are those of the source. The rule behind the calls is not given here.

What was measured:
Homo sapiens [1] = species on record: Homo sapiens
Homo sapiens [2] = species on record: Homo sapiens; experiment: Potency relative to fluocinolone 16,17-acetonide in the human vasoconstictor test; assay type: functional
Rattus norvegicus [3] = species on record: Rattus norvegicus; experiment: Anti-inflammatory effect in rat granuloma assay, activity relative to hydrocortisone and hydrocortisone 21-acetate; assay type: functional
Homo sapiens [4] = species on record: Homo sapiens; experiment: Potency relative to fluocinolone 16,17-acetonide(Experimental vasoconstictor activity) in human;NA = Not active; assay type: functional, organism-based
Homo sapiens [5] = species on record: Homo sapiens; experiment: Potency relative to fluocinolone 16,17-acetonide(Experimental vasoconstictor activity) in human; assay type: functional
Homo sapiens [6] = species on record: Homo sapiens; experiment: Potency relative to fluocinolone 16,17-acetonide(Experimental vasoconstictor activity) in human;NA =Not active; assay type: functional, organism-based
Homo sapiens [7] = species on record: Homo sapiens; experiment: Potency relative to fluocinolone 16,17-acetonide(Experimental vasoconstictor activity) in human; 900-1080; assay type: functional
Homo sapiens [8] = species on record: Homo sapiens; experiment: Potency relative to fluocinolone 16,17-acetonide(Experimental vasoconstictor activity)in human; NA= Not active; assay type: functional, organism-based
Homo sapiens [9] = species on record: Homo sapiens; experiment: PPotency relative to fluocinolone 16,17-acetonide(Experimental vasoconstictor activity) in human; NA= Not active; assay type: functional, organism-based
Homo sapiens [10] = species on record: Homo sapiens; experiment: Potency relative to fluocinolone 16,17-acetonide(Experimental vasoconstictor activity) in human; 16-34; assay type: functional
Homo sapiens [11] = species on record: Homo sapiens; experiment: Potency relative to fluocinolone 16,17-acetonide(Experimental vasoconstictor activity) in human; 100-300; assay type: functional
Rattus norvegicus [12] = species on record: Rattus norvegicus; experiment: Experimental relative rat granuloma activity (relative to hydrocortisone and hydrocortisone 21-acetate); 0.15-0.5; assay type: functional
Homo sapiens [13] = species on record: Homo sapiens; experiment: Potency relative to fluocinolone 16,17-acetonide(Experimental vasoconstictor activity) in human; 15-45; assay type: functional
Rattus norvegicus [14] = species on record: Rattus norvegicus; experiment: Experimental relative rat granuloma activity (relative to hydrocortisone and hydrocortisone 21-acetate); 200-500; assay type: functional

| SMILES | Potency (Homo sapiens [1]) | Potency (Rattus norvegicus [3]) | also measured |
| --- | --- | --- | --- |
| C[C@@H]1CC2C3C[C@H](Cl)C4=CC(=O)C=CC4(C)C3C(O)CC2(C)C1C(=O)COC(=O)C(C)(C)C (some centres undefined) | inactive |  |  |
| CCCC(=O)O[C@]1(C(=O)CO)CC[C@H]2[C@@H]3CCC4=CC(=O)CC[C@]4(C)[C@H]3[C@@H](O)C[C@@]21C [HYDROCORTISONE BUTYRATE] |  | 1 | Potency (Homo sapiens [2]): 50 |
| C[C@H]1C[C@@H]2[C@H]([C@@H](O)C[C@@]3(C)[C@H]2CC[C@]3(O)C(=O)CO)[C@@]2(C)C=CC(=O)C=C12 (stereo in doubt) [METHYLPREDNISOLONE] |  | 5 | Potency (Homo sapiens [2]): 0.1 |
| CCCC(=O)OCC(=O)[C@@]1(OC(C)=O)CCC2C3C[C@H](F)C4=CC(=O)C=CC4(C)[C@@]3(F)C(O)CC21C (some centres undefined) | inactive |  |  |
| CC(=O)O[C@]1(C(=O)CO)CCC2C3CCC4=CC(=O)CCC4(C)C3C(O)CC21C (some centres undefined) | inactive |  |  |
| C[C@H]1CC2C3CCC4=CC(=O)C=CC4(C)[C@@]3(F)[C@@H](O)CC2(C)[C@@]1(O)C(=O)CCl (some centres undefined) | inactive |  |  |
| CC(=O)OCC(=O)[C@@]1(O)[C@H](C)CC2C3C[C@H](F)C4=CC(=O)C=CC4(C)C3C(O)CC21C (some centres undefined) |  | 60 | Potency (Homo sapiens [4]): inactive |
| CCC(=O)OCC(=O)C1(C)C(C)CC2C3CCC4=CC(=O)C=CC4(C)[C@@]3(F)CCC21C (some centres undefined) | inactive |  |  |
| C[C@]12C[C@H](O)[C@H]3[C@@H](CCC4=CC(=O)CC[C@@]43C)[C@@H]1CC[C@@H]2C(=O)CO [CORTICOSTERONE] |  | 0.3 | Potency (Homo sapiens [2]): 0.3 |
| CC1(C)O[C@@H]2C[C@H]3[C@@H]4C[C@H](F)C5=CC(=O)C=C[C@]5(C)[C@@]4(F)[C@@H](O)C[C@]3(C)[C@]2(C(=O)CO)O1 [FLUOCINOLONE ACETONIDE] |  | 450 | Potency (Homo sapiens [5]): 100 |
| CC1(C)O[C@@H]2CC3C4C[C@H](F)C5=CC(=O)C=CC5(C)[C@@]4(F)[C@@H](O)CC3(C)[C@]2(C(=O)C(=O)OCCl)O1 (some centres undefined) | inactive |  |  |
| CC1(C)O[C@@H]2C[C@H]3[C@@H]4CCC5=CC(=O)C=C[C@]5(C)[C@H]4[C@@H](O)C[C@]3(C)[C@]2(C(=O)CO)O1 [DESONIDE] |  | 66.2 | Potency (Homo sapiens [6]): inactive |
| CCCC(=O)O[C@]1(C(C)=O)CCC2C3C[C@H](F)C4=CC(=O)C=CC4(C)[C@@]3(F)C(O)CC21C (some centres undefined) |  |  | Potency (Homo sapiens [7]): 900 |
| CC1(C)O[C@@H]2CC3C4CCC5=CC(=O)CCC5(C)C4[C@@H](O)CC3(C)[C@]2(C(=O)CCl)O1 (some centres undefined) | inactive |  |  |
| CCC(=O)O[C@]1(C(=O)OCCl)CCC2C3CCC4=CC(=O)CCC4(C)C3[C@@H](O)CC21C (some centres undefined) | inactive |  |  |
| CCC(=O)O[C@]1(C(=O)C(=O)OCCl)CC[C@H]2C3CCC4=CC(=O)CCC4(C)C3[C@@H](O)CC21C (some centres undefined) | inactive |  |  |
| CCCCC(=O)OCC(=O)[C@H]1[C@H](C)C[C@H]2[C@@H]3C[C@H](F)C4=CC(=O)C=C[C@]4(C)[C@@]3(F)[C@@H](O)C[C@@]21C |  |  | Potency (Homo sapiens [8]): inactive |
| CC1(C)O[C@@H]2CC3C4CCC5=CC(=O)C=CC5(C)C4[C@@H](O)CC3(C)[C@]2(C(=O)CCl)O1 (some centres undefined) |  |  | Potency (Homo sapiens [9]): inactive |
| CCCCC(=O)O[C@]1(C(=O)CO)CCC2C3CCC4=CC(=O)CCC4(C)C3C(O)CC21C (some centres undefined) |  |  | Potency (Homo sapiens [10]): 16 |
| CCC(=O)[C@@]1(C)[C@H](C)CC2C3CCC4=CC(=O)C=C[C@]4(C)C3[C@@H](O)C[C@@]21C (some centres undefined) | inactive |  |  |
| CC(=O)OCC(=O)[C@@]1(O)CC[C@H]2[C@@H]3CCC4=CC(=O)C=C[C@]4(C)[C@H]3[C@@H](O)C[C@@]21C [PREDNISOLONE ACETATE] |  | 3 | Potency (Homo sapiens [2]): 1 |
| CCCCC(=O)O[C@]1(C(=O)COC(C)=O)CCC2C3CCC4=CC(=O)C=CC4(C)C3C(O)CC21C (some centres undefined) | inactive |  |  |
| CC1(C)O[C@@H]2C[C@H]3[C@@H]4C[C@H](F)C5=CC(=O)CC[C@]5(C)[C@H]4[C@@H](O)C[C@]3(C)[C@]2(C(=O)CO)O1 [FLURANDRENOLIDE] |  |  | Potency (Homo sapiens [2]): 12; Potency (Homo sapiens [11]): 100 |
| C[C@@H]1C[C@H]2[C@@H]3C[C@H](F)C4=CC(=O)C=C[C@]4(C)[C@H]3[C@@H](O)C[C@]2(C)[C@H]1C(=O)CO [FLUOCORTOLONE] |  | 350 | Potency (Homo sapiens [8]): inactive |

| SMILES | Potency (Homo sapiens [1]) | Potency (Rattus norvegicus [3]) | also measured |
| --- | --- | --- | --- |
| CC(=O)OCC(=O)[C@@]1(O)CCC2C3CCC4=CC(=O)CCC4(C)[C@@]3(Cl)[C@@H](Cl)CC21C (some centres undefined) |  |  | Potency (Rattus norvegicus [12]): 0.15 |
| CC1(C)O[C@@H]2C[C@H]3[C@@H]4CCC5=CC(=O)C=C[C@]5(C)[C@@]4(F)[C@@H](O)C[C@]3(C)[C@]2(C(=O)CO)O1 [TRIAMCINOLONE ACETONIDE] |  | 49 | Potency (Homo sapiens [2]): 100 |
| C[C@]12C=CC(=O)C=C1[C@@H](F)C[C@H]1[C@@H]3C[C@@H](O)[C@](O)(C(=O)CO)[C@@]3(C)C[C@H](O)[C@@]12F [FLUOCINOLONE] |  | 19.7 | Potency (Homo sapiens [13]): 15 |
| C[C@@H]1C[C@H]2[C@@H]3CCC4=CC(=O)C=C[C@]4(C)[C@@]3(F)[C@@H](O)C[C@]2(C)[C@@]1(O)C(=O)CO [DEXAMETHASONE] |  | 200 | Potency (Homo sapiens [2]): 1 |
| CC1(C)O[C@@H]2C[C@H]3[C@@H]4CCC5=CC(=O)CC[C@]5(C)[C@@]4(F)[C@@H](O)C[C@]3(C)[C@]2(C(=O)CCl)O1 [HALCINONIDE] | inactive |  | Potency (Homo sapiens [2]): >360 |
| C[C@@H]1CC2C3CCC4=CC(=O)C=CC4(C)[C@@]3(F)[C@@H](O)CC2(C)[C@@]1(C)C(=O)CO (some centres undefined) | inactive |  |  |
| CC(=O)OCC(=O)[C@@]1(O)CCC2C3CCC4=CC(=O)C=CC4(C)C3[C@@H](Cl)CC21C (some centres undefined) |  |  | Potency (Rattus norvegicus [12]): 0.15 |
| CC(=O)OCC(=O)[C@@]1(O)CC[C@H]2[C@@H]3CCC4=CC(=O)CC[C@]4(C)[C@@]3(F)[C@@H](O)C[C@@]21C [FLUDROCORTISONE ACETATE] |  | 7.3 | Potency (Homo sapiens [2]): 1 |
| C[C@@H]1CC2C3CCC4=CC(=O)C=CC4(C)[C@@]3(F)C(O)CC2(C)C1C(=O)CO (some centres undefined) [DEOXYMETHASONE] | inactive | 10 |  |
| C[C@]12CCC(=O)C=C1CC[C@@H]1[C@@H]2[C@@H](O)C[C@@]2(C)[C@H]1CC[C@]2(O)C(=O)CO [HYDROCORTISONE] |  | 1 | Potency (Homo sapiens [2]): <1 |
| C[C@@H]1CC2C3C[C@H](F)C4=CC(=O)C=CC4(C)[C@@]3(F)C(O)CC2(C)C1C(=O)COC(=O)C(C)(C)C (some centres undefined) | inactive |  |  |
| C[C@@H]1C[C@H]2[C@@H]3C[C@H](F)C4=CC(=O)C=C[C@]4(C)[C@H]3[C@@H](O)C[C@]2(C)[C@@]1(O)C(=O)CO [PARAMETHASONE] | inactive | 63.6 |  |
| C[C@H]1C[C@H]2[C@@H]3CCC4=CC(=O)C=C[C@]4(C)[C@@]3(F)[C@@H](O)C[C@]2(C)[C@@]1(O)C(=O)CO [BETAMETHASONE] |  | 35.8 | Potency (Homo sapiens [2]): 0.8 |
| C[C@]12C=CC(=O)C=C1CC[C@H]1[C@@H]3C[C@@H](O)[C@](O)(C(=O)CO)[C@@]3(C)C[C@H](O)[C@@]12F [TRIAMCINOLONE] |  | 2.6 | Potency (Homo sapiens [2]): 0.01 |
| CC(=O)OCC(=O)[C@@]1(O)CC[C@H]2[C@@H]3CCC4=CC(=O)CC[C@]4(C)[C@H]3[C@@H](O)C[C@@]21C [HYDROCORTISONE ACETATE] |  | 1 | Potency (Homo sapiens [2]): 1 |
| CC(=O)OCC(=O)[C@@]1(O)CCC2C3C[C@H](Cl)C4=CC(=O)CCC4(C)[C@@]3(F)C(O)CC21C (some centres undefined) |  | 11 |  |
| C[C@@H]1CC2C3CCC4=CC(=O)CCC4(C)[C@@]3(F)C(O)CC2(C)[C@@]1(O)C(=O)CO (some centres undefined) |  | 36 |  |
| C[C@@H]1C[C@H]2[C@@H]3C[C@H](F)C4=CC(=O)C=C[C@]4(C)[C@@]3(F)[C@@H](O)C[C@]2(C)[C@@]1(O)C(=O)CO [FLUMETHASONE] |  |  | Potency (Rattus norvegicus [14]): 200 |
| CC12CCC(=O)C=C1CCC1C2[C@@H](O)CC2(C)C1CC[C@]2(O)C(=O)OCCl (some centres undefined) | inactive |  |  |
| CC(=O)OCC(=O)[C@]1(O)C2(C)C[C@H](O)C3C(CCC4=CC(=O)C=CC43C)C2C[C@@]1(C)O (some centres undefined) | inactive |  |  |
| CC1CC2C3CCC4=CC(=O)C=CC4(C)[C@@]3(F)C(O)CC2(C)[C@@]1(O)C(=O)COP(=O)(O)O (some centres undefined) | inactive |  |  |
| C[C@]12C=CC(=O)C=C1CC[C@@H]1[C@@H]2[C@@H](O)C[C@@]2(C)[C@H]1CC[C@]2(O)C(=O)CO [PREDNISOLONE] |  | 3 | Potency (Homo sapiens [2]): 0.1 |
| CC(=O)OCC(=O)[C@@]1(O)CCC2C3CCC4=CC(=O)CCC4(C)[C@@]3(Cl)C(O)CC21C (some centres undefined) |  | 3.5 |  |
| CC(=O)OCC(=O)[C@@]1(O)CCC2C3CCC4=CC(=O)[C@H](C)CC4(C)C3C(O)CC21C (some centres undefined) |  | 4.5 |  |
